PMC11322497 (Frontiers in Pharmacology, 2024)
Like-named read-outs stand apart in the source and are kept apart here.

Tests used:
[1] = Plasma and liver selvigaltin concentrations after 4 weeks of treatment; type: in vivo; conditions: New Zealand White, rabbit, oral, HFD rabbits, 0.3, 1.0, 5.0 mg/kg, read-out: increased levels in liver tissue vs plasma
Method: After 1 week (W) of RD, the animals (n = 44) were randomly assigned to the following groups (Table 1B): • Control rabbits continued to receive a RD for 12 weeks and were treated with vehicle for 5 days a week (days 1–5, p.o.) during the last 4 weeks before culling (RD + 4W Veh group); • Rabbits received a HFD for 8 weeks and were culled (HFD 8W group); • Rabbits received a HFD for 12 weeks and were treated with vehicle for 5 days a week (days 1–5, p.o.) during the last 4 weeks before culling (HFD+4W Veh group); • Rabbits received a HFD for 12 weeks and were treated with GB1211 (0.3 mg/kg) for 5 days a week (days 1–5, p.o.) during the last 4 weeks before culling (HFD + 4W 0.3 mg group); • Rabbits received a HFD for 12 weeks and were treated with GB1211 (1.0 mg/kg) for 5 days a week (days 1–5, p.o.) during the last 4 weeks before culling (HFD + 4W 1.0 mg group); • Rabbits received a HFD for 12 weeks and were treated with GB1211 (5.0 mg/kg) for 5 days a week (days 1–5, p.o.) during the last 4 weeks before culling (HFD + 4W 5.0 mg group).
Liver homogenates were prepared by homogenisation of 200 mg liver tissue/ml water using a Fisherbrand™ Homogenizer 150 (Thermo Fisher Scientific, Waltham, MA). […]

[2] = Ex vivo plasma protein binding, terminal bleed after 5 days of acute dosing; type: in vitro ADME; conditions: rabbit, plasma from dosed rabbits (ex vivo), oral, 30 mg/kg, terminal bleed after 5 days 30 mg/kg, week 12
rabbit galectin-3 = biological target: T1, rabbit galectin-3 (Oryctolagus cuniculus, UniProt P47845); assay: Galectins fluorescence polarization binding assay
T1 construct: made in house
T1 sequence (P47845 whole entry): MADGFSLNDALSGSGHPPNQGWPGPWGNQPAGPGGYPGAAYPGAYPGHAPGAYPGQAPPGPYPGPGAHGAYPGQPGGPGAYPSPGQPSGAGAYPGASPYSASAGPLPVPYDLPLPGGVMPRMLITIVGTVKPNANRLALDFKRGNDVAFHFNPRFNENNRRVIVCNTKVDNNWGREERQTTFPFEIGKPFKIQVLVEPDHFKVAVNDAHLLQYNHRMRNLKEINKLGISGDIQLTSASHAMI
Method: Briefly, FP was measured from above in 96-well microtiter plates (black polystyrene; Costar, Corning, NY) using a POLARStar® instrument (BMG Labtech, Ortenberg, Germany). The final sample volume in each well was 200 μL. For inhibition assays, 100 μL of galectin and probe at fixed concentration was mixed with 100 μL of inhibitor solution and FP was measured as described above. Control wells containing only fluorescent probe or fluorescein were included.
All dilutions and measurements were done in PBS with plates incubated at room temperature for 1 h.

[3] = system: high fat diet (HFD) rabbit model of metabolic-associated steatohepatitis (MASH); assay: HFD rabbit study, acute 5-day treatment: liver markers mRNA expression by RT-PCR; type: in vivo, New Zealand White rabbits; conditions: 30 mg/kg p.o. 5 days, week 12, mean ± SD, n = 3
Method: After 1 week of standard diet, animals (n = 12) were randomly assigned to the following groups (Table 1A): • Control rabbits continued to receive a regular diet (RD) for 12 weeks and were treated for 5 days (days 1–5, p.o.), during the last week before culling, with either vehicle; RD+1W Veh group] or GB1211 (30 mg/kg; RD + 1W 30 mg group); • Rabbits received a high fat diet (HFD) for 12 weeks (RD implemented with 0.5% cholesterol and 2.5% vegetable fat) and were treated for 5 days (days 1–5, p.o.), during the last week before culling, with either vehicle (HFD + 1W Veh group) or GB1211 (30 mg/kg; HFD + 1W 30 mg group).
TRIzol reagent (Life Technologies, Paisley, United Kingdom) and/or RNeasy Mini Kit (Qiagen, Hilden, Germany) were used to isolate total RNA from rabbit liver specimens. RNA concentration and quality were measured using a Nanodrop ND-1000 (Thermo Fisher Scientific) at 260 nm and 280 nm. The OD 260/280 absorbance ratios were between 2.0 and 2.1 for all samples, to confirm RNA integrity and purification. cDNA synthesis was carried out using the iScript™ cDNA Synthesis Kit (Bio-Rad Laboratories, Hercules, CA), with 100 ng of mRNA in 20 µL reaction volume in accordance with the following protocol: 5 min at 25°C, 20 min at 46°C and 5 min at 85°C, followed by refrigeration at 4°C.
Semi-quantitative real-time RT-PCR (qRT-PCR) amplification and detection was performed with SsoAdvanced™ universal SYBR® Supermix and a CFX96 Two-Color Real-Time PCR Detection System (both Bio-Rad Laboratories) with the following thermal cycler conditions: 40 cycles at 95°C for 15 s and 60°C for 1 min. Specific PCR primers for rabbit target genes were designed on sequences available at the National Center for Biotechnology Information GenBank (http://www.ncbi.nlm.nih.gov) or Ensemble Genome (http://www.ensembl.org).
The 18S ribosomal RNA subunit was quantified with a predeveloped assay (Hs99999901_s1, Life Technologies) and used as the housekeeping gene for the relative quantitation of the target genes based on the comparative threshold cycle (Ct) 2^−ΔΔCt method ([Livak and Schmittgen, 2001]), with some modifications. In detail, we used the vehicle control groups as the calibrator in each analysis, so that the calculations would provide the fold-change of the other groups relative to controls.

Which Kp at 4 weeks [1] does the source give for `OC[C@H]1O[C@H](Sc2cncc(Br)c2)[C@H](O)[C@@H](n2cc(-c3cc(F)c(F)c(F)c3)nn2)[C@H]1O` [selvigaltin] here?
Its Kp at 4 weeks is 50 to 60.

What about the fraction unbound at 5 days ([2]; HFD rabbits) of the same compound?
Its fraction unbound at 5 days is 0.929.

And the fraction unbound at 5 days ([2]; RD rabbits)?
The fraction unbound at 5 days was 0.946.

What about the Kd (rabbit galectin-3; equivalent to KD of 12 nM, read-out: rabbit galectin-3 KD, equivalent concentration (converted)) of the same compound?
Its Kd is 12 nM.

What about the Kd (rabbit galectin-3; fluorescence polarization, mean ± SD, n = 3, read-out: KD rabbit galectin-3) of the same compound?
The Kd was 12 nM.

What about the “CD8 liver mRNA expression” value ([3]; HFD rabbits) of the same compound?
The value was 1.76 ± 0.20 fold-change vs. RD+1W Veh.

What about the “COL1A1 liver mRNA expression” value ([3]; HFD rabbits) of the same compound?
The value was 20.12 ± 15.24 fold-change vs. RD+1W Veh.

What about the “COL3A1 liver mRNA expression” value ([3]; HFD rabbits) of the same compound?
The value was 9.96 ± 7.51 fold-change vs. RD+1W Veh.

What about the “COX-2 liver mRNA expression” value ([3]; HFD rabbits) of the same compound?
The value was 8.81 ± 10.30 fold-change vs. RD+1W Veh.

And the “EDN1 liver mRNA expression” value ([3]; HFD rabbits)?
The value was 1.32 ± 0.21 fold-change vs. RD+1W Veh.

What about the “EDNRA liver mRNA expression” value ([3]; HFD rabbits) of the same compound?
Its value is 7.73 ± 5.69 fold-change vs. RD+1W Veh.

And the “EDNRB liver mRNA expression” value ([3]; HFD rabbits)?
The value was 2.23 ± 0.95 fold-change vs. RD+1W Veh.

And the “FN1 liver mRNA expression” value ([3]; HFD rabbits)?
Its value is 0.98 ± 0.14 fold-change vs. RD+1W Veh.

And the “FOXP3 liver mRNA expression” value ([3]; HFD rabbits)?
Its value is 5.15 ± 2.78 fold-change vs. RD+1W Veh.

And the “IGF-1 liver mRNA expression” value ([3]; HFD rabbits)?
Its value is 0.34 ± 0.08 fold-change vs. RD+1W Veh.

And the “LGALS3 liver mRNA expression” value ([3]; HFD rabbits)?
Its value is 116.95 ± 77.56 fold-change vs. RD+1W Veh.

What about the “PAI-1 liver mRNA expression” value ([3]; HFD rabbits) of the same compound?
The value was 14.10 ± 16.47 fold-change vs. RD+1W Veh.

What about the “SNAI2 liver mRNA expression” value ([3]; HFD rabbits) of the same compound?
The value was 1.55 ± 0.26 fold-change vs. RD+1W Veh.

And the “TBET liver mRNA expression” value ([3]; HFD rabbits)?
Its value is 0.74 ± 0.14 fold-change vs. RD+1W Veh.

What about the “TGFβ1 liver mRNA expression” value ([3]; HFD rabbits) of the same compound?
The value was 4.25 ± 2.06 fold-change vs. RD+1W Veh.

What about the “TGFβ3 liver mRNA expression” value ([3]; HFD rabbits) of the same compound?
Its value is 2.97 ± 1.96 fold-change vs. RD+1W Veh.

And the “αSMA liver mRNA expression” value ([3]; HFD rabbits)?
Its value is 5.77 ± 3.34 fold-change vs. RD+1W Veh.

And the “CD8 liver mRNA expression” value ([3]; RD rabbits)?
Its value is 1.14 ± 0.81 fold-change vs. RD+1W Veh.

And the “COL1A1 liver mRNA expression” value ([3]; RD rabbits)?
Its value is 0.82 ± 0.40 fold-change vs. RD+1W Veh.

What about the “COL3A1 liver mRNA expression” value ([3]; RD rabbits) of the same compound?
Its value is 0.47 ± 0.21 fold-change vs. RD+1W Veh.

And the “COX-2 liver mRNA expression” value ([3]; RD rabbits)?
The value was 2.52 ± 1.59 fold-change vs. RD+1W Veh.

What about the “EDN1 liver mRNA expression” value ([3]; RD rabbits) of the same compound?
The value was 0.91 ± 0.20 fold-change vs. RD+1W Veh.

What about the “EDNRA liver mRNA expression” value ([3]; RD rabbits) of the same compound?
The value was 0.89 ± 0.29 fold-change vs. RD+1W Veh.

What about the “EDNRB liver mRNA expression” value ([3]; RD rabbits) of the same compound?
The value was 0.79 ± 0.19 fold-change vs. RD+1W Veh.

What about the “FN1 liver mRNA expression” value ([3]; RD rabbits) of the same compound?
Its value is 1.05 ± 0.12 fold-change vs. RD+1W Veh.

What about the “FOXP3 liver mRNA expression” value ([3]; RD rabbits) of the same compound?
The value was 0.86 ± 0.12 fold-change vs. RD+1W Veh.

What about the “IGF-1 liver mRNA expression” value ([3]; RD rabbits) of the same compound?
The value was 1.01 ± 0.19 fold-change vs. RD+1W Veh.

And the “LGALS3 liver mRNA expression” value ([3]; RD rabbits)?
The value was 1.27 ± 1.04 fold-change vs. RD+1W Veh.

What about the “PAI-1 liver mRNA expression” value ([3]; RD rabbits) of the same compound?
Its value is 2.63 ± 1.79 fold-change vs. RD+1W Veh.

And the “SNAI2 liver mRNA expression” value ([3]; RD rabbits)?
The value was 1.01 ± 0.31 fold-change vs. RD+1W Veh.

What about the “TBET liver mRNA expression” value ([3]; RD rabbits) of the same compound?
The value was 0.75 ± 0.20 fold-change vs. RD+1W Veh.

And the “TGFβ1 liver mRNA expression” value ([3]; RD rabbits)?
The value was 0.95 ± 0.31 fold-change vs. RD+1W Veh.

What about the “TGFβ3 liver mRNA expression” value ([3]; RD rabbits) of the same compound?
Its value is 0.70 ± 0.08 fold-change vs. RD+1W Veh.

What about the “αSMA liver mRNA expression” value ([3]; RD rabbits) of the same compound?
The value was 0.96 ± 0.59 fold-change vs. RD+1W Veh.
